From ChEMBL document CHEMBL5376002, “A Hybrid Antimicrobial Peptide Targeting Staphylococcus aureus with a Dual Function of Inhibiting Quorum Sensing Signaling and an Antibacterial Effect” (J Med Chem, 2023)
pKd: −log10 of the molar value. In brackets after ≈: the same amount, converted by molar mass. Activity calls are given as the source filed them. The calls are words filed in the database; no cut-off is given here. Numbered stars: 1 amine (or outer) side, 2 acyl side, 3 side chain; on linkers, the order of the positions; unused ones are H or OH. Bridge positions count the residues as written; N and C are the ends. Square brackets hold non-standard residues; d marks the D form. Peptide text beside a SMILES is read from it. I, II: the chains in the order shown. X1 = O=C1CC([*:2])C(=O)N1CCCCCC(=O)[*:1]; Dab = NCC[C@H](N)C(=O)O

Legend:
Staphylococcus aureus [1] = assay: Bactericidal activity against Staphylococcus aureus ATCC 43300 assessed as inhibition of bacterial growth incubated for 18 to 24 hrs; type: functional; conditions: time 18-24 hrs
[2] = Binding affinity to AgrC-I extra-loop-II (unknown origin) assessed as change in enthalpy incubated for 10 mins by isothermal titration calorimetry analysis
Homo sapiens = species on record: Homo sapiens; assay: Binding affinity to AgrC-I extra-loop-III (unknown origin) assessed as change in entropy incubated for 10 mins by isothermal titration calorimetry analysis
Escherichia coli [3] = assay: Antibacterial activity against Escherichia coli assessed as reduction in bacterial growth at 6.25 uM measured at 20 mins by time kill assay; type: functional, organism-based
[4] = tested on: Staphylococcus epidermidis; assay: Antibacterial activity against Staphylococcus epidermidis ATCC 12228 assessed as inhibition of bacterial growth incubated for 18 to 24 hrs; type: functional; conditions: time 18-24 hrs
[5] = Toxicity in Kunming mouse infected with Staphylococcus aureus ATCC 6538p assessed as animal survival rate 15 mg/kg, ip pre-infected with bacteria for 1 hr followed by compound administration and measured after 7 days; type: organism-based; conditions: in vivo, 168 h, time 7 day
Streptococcus pneumoniae = assay: Bactericidal activity against Streptococcus pneumoniae ATCC 49619 assessed as inhibition of bacterial growth incubated for 18 to 24 hrs; type: functional; conditions: time 18-24 hrs
Escherichia coli [6] = assay: Antibacterial activity against Escherichia coli ATCC 25922 assessed as inhibition of bacterial growth incubated for 18 to 24 hrs; type: functional; conditions: time 18-24 hrs
Staphylococcus aureus [7] = assay: Inhibition of biofilm formation in Staphylococcus aureus at 0.78 to 1.56 uM incubated for 24 hrs by crystal violet staining based analysis; type: functional, organism-based; conditions: dose 0.78-1.56 µM
[8] = Binding affinity to AgrC-I extra-loop-II (unknown origin) assessed as dissociation constant incubated for 10 mins by isothermal titration calorimetry analysis
Streptococcus mutans = assay: Antibacterial activity against Streptococcus mutans ATCC 25175 assessed as inhibition of bacterial growth incubated for 18 to 24 hrs; type: functional; conditions: time 18-24 hrs
Staphylococcus aureus [9] = assay: Antivirulence activity against Staphylococcus aureus assessed as downregulation of hla expression level at 1 to 100 uM incubated for 24 hrs by qRT-PCR analysis; type: functional, organism-based; conditions: dose 1-100 µM

Q: Which results are given for `CC[C@H](C)[C@H](NC(=O)CNC(=O)CNC(=O)[C@@H](N)CSC1CC(=O)N(CCCCCC(=O)NCC(=O)N[C@H](C(=O)N[C@@H](CCCCN)C(=O)N[C@@H](CC(N)=O)C(=O)N[C@@H](CC(C)C)C(=O)N[C@@H](Cc2c[nH]c3ccccc23)C(=O)N[C@@H](CCCCN)C(=O)N[C@@H](CCCCN)C(=O)N[C@@H](CCSC)C(=O)N[C@H](C(=O)N[C@@H](CCCCN)C(=O)N[C@@H](CC(C)C)C(=O)N[C@@H](Cc2c[nH]c3ccccc23)C(=O)N[C@@H](Cc2ccc(O)cc2)C(=O)O)[C@@H](C)CC)[C@@H](C)CC)C1=O)C(=O)N[C@@H](CC(N)=O)C(=O)N[C@H]1CCNC(=O)[C@H](CC(C)C)NC(=O)[C@H](CC(C)C)NC(=O)[C@H](Cc2ccccc2)NC(=O)[C@H](C)NC1=O` (some centres not stated) (I: GIKNLWKKMIKLWY-OH / II: H-CGGIN[Dab]AFLL; linker I:N-II:1 via X1; lactam II:6-II:C)?
A: MBC (Staphylococcus aureus [1]): 6.25 µM (≈ 18.8 µg/mL); deltaH [2]: inactive; -TdeltaS (Homo sapiens): -16.3 kcal/mol; Activity (Escherichia coli [3]): inactive; MIC [4]: 1.56 µM (≈ 4.69 µg/mL); Activity [5]: 20%; MBC (Streptococcus pneumoniae): 6.25 µM (≈ 18.8 µg/mL); MIC (Escherichia coli [6]): 3.13 µM (≈ 9.4 µg/mL); inhibition (Staphylococcus aureus [7]): Active; pKd [8]: 12.00; MIC (Streptococcus mutans): 3.13 µM (≈ 9.4 µg/mL); Activity (Staphylococcus aureus [9]): Active
